Values of other authors, collected in publication PMC8621674, “Formulation and In Vivo Evaluation of a Solid Self-Emulsifying Drug Delivery System Using Oily Liquid Tocotrienols as Model Active Substance” (Pharmaceutics, 2021).

Conditions: no reference given

HLB value	Substance
29	poloxamer 188
12	caprylocaproyl macrogol-8 glycerides [Labrasol®]
